# Tested on: canine ADSCs
# Assay: Treatment of canine ADSCs with nutlin-3, qRT-PCR of HMGA2 and p21
# Assay type: cell-based
# Conditions: two donors, 30 μM and 50 μM, 72 h
# Protocol: Canine subcutaneous adipose tissue was taken during surgery, transferred into sterile Hank's solution and minced for cell culture into small pieces followed by treatment with 0.26% (200 U/ml) collagenase (Serva, Heidelberg, Germany). From these samples ADSCs were isolated. Briefly, after 1-2 hours, the dissociated cells were transferred into sterile 25 cm^2 cell culture flasks containing 5 ml medium 199 (Gibco, Karlsruhe, Germany), supplemented with 20% fetal bovine serum (FCS, Invitrogen, Karlsruhe, Germany) and 2% penicillin-streptomycin (Biochrom, Berlin, Germany). The cultures were incubated in 5% CO2 air at 37° C. and medium was changed every two to three days. […]
# Relative quantification of transcription levels was carried out by real-time PCR analyses using the Applied Biosystems 7300 Real-Time PCR system (Applied Biosystems, Darmstadt, Germany). For quantification of mRNA levels of canine p21a commercially available gene expression assay was used (Hs99999142) (Applied Biosystems, Darmstadt, Germany). […] For canine cells the housekeeping gene beta-glucuronidase (GUSB) served as the reference for relative quantification because in contrast to some other housekeeping genes its expression turned out not to increase in serum starved ADSCs when induced by fetal serum in our own experiments. […]
smiles,measurement,value
COc1ccc(C2=N[C@@H](c3ccc(Cl)cc3)[C@@H](c3ccc(Cl)cc3)N2C(=O)N2CCNC(=O)C2)c(OC(C)C)c1 [nutlin-3],expression of HMGA2,significant decrease
same,expression of p21,increase

# From patent US20140371237A1, “p19Arf, HMGA2 and MDM2 For Use in the Diagnosis and Treatment of Aberrant Cell Growth” (University of Bremen, priority 2010, published 2014)
